pIC50: −log10 of the molar value. Like-named read-outs stand apart in the source and are kept apart here.
Experiments:
[1] = tested on: BaF3 (EGFR L858R/T790M/C797S); test: Cell proliferation IC50 assay (Cell Titer GLO), BaF3 LTC cells; format: cell-based; details: Mus musculus, Ba/F3 EGFR, Table 6, 72 h
Method: (§1) IC50 of compounds in the present invention was determined by Cell Titer GLO reagent from Promega. The procedures are as follows:
(§2) Tumor cells were cultured in specified medium in an incubator at 37° C. and 5% CO2. The cells were passaged periodically. Cells at the logarithmic growth phase were collected for plating at a density of 2000-4000 cells/well. The next day, the compounds of the present invention were serially diluted and added to the cells, with DMSO being the negative control and the culture media without cells being the blank control. The plate was incubated in the incubator for 72 h. The cell viability assay was performed by adding the detection reagents to the cell culture media according to Cell Titer GLO reagent instructions and detecting luminescent signals on an EnVision microplate reader (PerkinElmer).
(§3) Inhibition of cell growth by the compounds of the present invention was plotted by Prism Graphpad software for statistically calculating the IC50 of the compound of the present invention.

[2] = tested on: A431; test: Cell proliferation IC50 assay (Cell Titer GLO), A431 cells; format: cell-based; details: Homo sapiens; for pIC50: A-431, Table 6, A431, 72 h, read-out: A431 IC50
Method: as §1, §2, §3

[3] = target: T1, BaF3 (EGFR Del19/C797S) (Homo sapiens, UniProt P00533, C797S, cells depend on it, form not given); test: Cell proliferation IC50 assay (Cell Titer GLO), BaF3 DC cells; format: cell-based, mouse; details: Table 6, 72 h
T1 construct: BaF3 (EGFR Del19/C797S)|DC|RPMI1640 + 10% FBS
T1 sequence (P00533 with tags, fused parts or gaps DEL746-750/C797S, form open): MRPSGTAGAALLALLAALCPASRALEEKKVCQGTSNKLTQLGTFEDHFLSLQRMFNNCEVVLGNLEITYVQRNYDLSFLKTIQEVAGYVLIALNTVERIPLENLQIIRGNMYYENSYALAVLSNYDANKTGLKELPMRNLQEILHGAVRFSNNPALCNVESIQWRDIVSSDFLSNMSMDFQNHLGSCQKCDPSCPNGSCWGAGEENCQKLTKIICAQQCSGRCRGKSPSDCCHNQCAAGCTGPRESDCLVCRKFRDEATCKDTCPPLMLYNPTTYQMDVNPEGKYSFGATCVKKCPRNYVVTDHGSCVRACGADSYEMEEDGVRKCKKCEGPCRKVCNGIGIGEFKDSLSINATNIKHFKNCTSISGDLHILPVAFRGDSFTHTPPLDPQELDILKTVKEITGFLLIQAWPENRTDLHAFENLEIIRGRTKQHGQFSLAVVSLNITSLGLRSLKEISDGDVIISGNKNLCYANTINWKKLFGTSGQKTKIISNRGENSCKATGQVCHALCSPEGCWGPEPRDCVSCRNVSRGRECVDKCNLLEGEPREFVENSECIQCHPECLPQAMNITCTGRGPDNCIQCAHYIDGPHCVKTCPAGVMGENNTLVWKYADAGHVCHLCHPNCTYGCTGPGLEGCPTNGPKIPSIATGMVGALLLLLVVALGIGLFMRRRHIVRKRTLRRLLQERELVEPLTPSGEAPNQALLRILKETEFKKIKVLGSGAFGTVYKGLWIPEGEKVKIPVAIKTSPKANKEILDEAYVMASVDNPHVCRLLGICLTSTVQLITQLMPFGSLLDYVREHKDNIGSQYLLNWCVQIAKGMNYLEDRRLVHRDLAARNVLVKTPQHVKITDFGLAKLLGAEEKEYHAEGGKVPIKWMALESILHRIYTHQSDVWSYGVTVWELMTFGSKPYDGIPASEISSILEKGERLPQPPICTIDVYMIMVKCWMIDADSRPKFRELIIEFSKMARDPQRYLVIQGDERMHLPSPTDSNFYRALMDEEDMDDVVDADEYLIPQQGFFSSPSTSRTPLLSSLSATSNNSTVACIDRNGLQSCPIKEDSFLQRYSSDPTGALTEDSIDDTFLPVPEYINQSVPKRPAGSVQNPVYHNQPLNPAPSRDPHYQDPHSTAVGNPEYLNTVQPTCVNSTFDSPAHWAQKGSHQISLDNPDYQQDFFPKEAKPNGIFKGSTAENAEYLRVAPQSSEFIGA
Method: as §1, §2, §3

[4] = tested on: BaF3 (EGFR WT); test: Cell proliferation IC50 assay (Cell Titer GLO), BaF3 WT cells; format: cell-based; details: Mus musculus, Ba/F3 EGFR, Table 6, 10 ng/ml EGF, 72 h
Method: as §1, §2, §3

SMILES	pIC50 [1]	pIC50 [2]	pIC50 [3]	pIC50 [4]	IC50 ([2]; A-431, 72 h, read-out: A431 IC50 (nM))
CCc1cc(Nc2ncc(Cl)c(Nc3ccccc3P(C)(C)=O)n2)c(OC)cc1N1CCC2(CCN(CCCC#Cc3c(F)ccc4c3CN(C3CCC(=O)NC3=O)C4=O)CC2)CC1 (stereo not shown) [Example E74]	6.80	< 5.40	7.42	< 5.40	–
COc1cc(N2CCC3(CCN(CCCC#Cc4cccc5c4CN(C4CCC(=O)NC4=O)C5=O)CC3)CC2)c(C2CC2)cc1Nc1ncc(Cl)c(Nc2ccccc2P(C)(C)=O)n1 (stereo not shown) [Example E62]	7.02	< 5.40	7.29	< 5.40	–
CCc1cc(Nc2ncc(Cl)c(Nc3ccccc3P(C)(C)=O)n2)cc(C(N)=O)c1N1CCC(N2CCN(CCCCOc3cccc4c3CN(C3CCC(=O)NC3=O)C4=O)CC2)CC1 (stereo not shown) [Example E139]	6.16	6.02	7.22	6.26	–
CCc1cc(Nc2ncc(Cl)c(Nc3ccccc3P(C)(C)=O)n2)c(OC)cc1N1CCC2(CCN(CCCCOc3cccc4c3CN(C3CCC(=O)NC3=O)C4=O)CC2)CC1 (stereo not shown) [Example E47]	7.43	< 5.40	8.02	6.34	–
CCc1cc(Nc2ncc(Cl)c(Nc3ccccc3P(C)(C)=O)n2)c(OC)cc1N1CCC(N2CCN(CCOc3cc(F)cc4c3CN(C3CCC(=O)NC3=O)C4=O)CC2)CC1 (stereo not shown) [Example E66]	7.22	5.70	7.97	5.60	–
CCc1cc(Nc2ncc(Cl)c(Nc3ccccc3P(C)(C)=O)n2)c(OC)cc1N1CCC(N2CCN(CCCCNc3cccc4c3CN(C3CCC(=O)NC3=O)C4=O)CC2)CC1 (stereo not shown) [Example E119]	7.17	5.85	8.25	< 5.40	–
CCc1cc(Nc2ncc(-c3cnn(C)c3)c(Nc3ccccc3P(C)(C)=O)n2)c(OC)cc1N1CCC(N2CCN([C@H]3C[C@H](Oc4cc(F)cc5c4CN(C4CCC(=O)NC4=O)C5=O)C3)CC2)CC1 (stereo partly shown) [Example E222]	7.05	< 5.40	> 9.62	6.88	–
CCc1cc(Nc2nc(Nc3ccccc3P(C)(C)=O)c3cc[nH]c3n2)c(C(C)(C)O)cc1N1CCC(N2CCN(CCCCOc3cccc4c3CN(C3CCC(=O)NC3=O)C4=O)CC2)CC1 (stereo not shown) [Example E142]	5.96	< 5.40	6.91	6.10	–
CCc1cc(Nc2ncc(-c3cc(C)n[nH]3)c(Nc3ccccc3P(C)(C)=O)n2)c(OC)cc1N1CCC(N2CCN(CCOc3ccc4c(c3)CN(C3CCC(=O)NC3=O)C4=O)CC2)CC1 (stereo not shown) [Example E192]	< 5.40	< 5.40	7.36	< 5.40	–
CCc1cc(N2CCC(N3CCN(CCCCOc4cccc5c4CN(C4CCC(=O)NC4=O)C5=O)CC3)CC2)c(CC)cc1Nc1nc(Nc2ccccc2P(C)(C)=O)c2cc[nH]c2n1 (stereo not shown) [Example E153]	7.18	< 5.40	7.58	< 5.40	–
CCc1cc(Nc2ncc(-n3ccnc3)c(Nc3ccccc3P(C)(C)=O)n2)c(OC)cc1N1CCC(N2CCN(CCOc3cccc4c3CN(C3CCC(=O)NC3=O)C4=O)CC2)CC1 (stereo not shown) [Example E170]	< 5.40	< 5.40	8.46	< 5.40	–
CCc1cc(Nc2ncc(-c3cnn(C)c3)c(Nc3ccc(C)cc3P(C)(C)=O)n2)c(OC)cc1N1CCC(N2CCN(Cc3ccc4c(c3)CN(C3CCC(=O)NC3=O)C4=O)CC2)CC1 (stereo not shown) [Example E216]	< 5.40	< 5.40	9.00	6.03	–
CCc1cc(Nc2ncc(Cl)c(Nc3ccccc3P(C)(C)=O)n2)c(OC)cc1N1CCC(N2CCN(CCC#Cc3c(F)ccc4c3CN(C3CCC(=O)NC3=O)C4=O)CC2)CC1 (stereo not shown) [Example E54]	7.29	5.93	7.69	6.45	–
COc1cc(N2CCC(N3CCN(CCC#Cc4cccc5c4CN(C4CCC(=O)NC4=O)C5=O)CC3)CC2)c(C#N)cc1Nc1ncc(Cl)c(Nc2ccccc2P(C)(C)=O)n1 (stereo not shown) [Example E52]	7.38	5.98	7.82	< 5.40	–
CCc1cc(Nc2ncc(Cl)c(Nc3ccccc3P(C)(C)=O)n2)c(OC)cc1N1CCC(N2CCN(CCCCOc3cc4c(cc3F)C(=O)N(C3CCC(=O)NC3=O)C4)CC2)CC1 (stereo not shown) [Example E92]	7.14	5.93	7.90	6.16	–
CCc1cc(Nc2ncc(Cl)c(Nc3ccccc3P(C)(C)=O)n2)c(OC)cc1N1CCC(N2CCN([C@H]3C[C@H](Oc4ccc5c(c4)CN(C4CCC(=O)NC4=O)C5=O)C3)CC2)CC1 (stereo partly shown) [Example E191]	7.16	5.94	8.51	6.02	–
CCc1cc(Nc2ncc(Cl)c(Nc3ccccc3P(C)(C)=O)n2)c(OC)cc1N1CCC2(CC1)CC(N(C)CCCC#Cc1cccc3c1CN(C1CCC(=O)NC1=O)C3=O)C2 (stereo not shown) [Example E60]	7.11	< 5.40	7.40	< 5.40	–
CCc1cc(Nc2ncc(Cl)c(Nc3ccccc3P(C)(C)=O)n2)c(OC)cc1N1CCC(N2CCc3ccc(Oc4cccc5c4CN(C4CCC(=O)NC4=O)C5=O)cc3C2)CC1 (stereo not shown) [Example E76]	6.83	< 5.40	7.52	< 5.40	–
CCc1cc(Nc2ncc(Cl)c(Nc3ccccc3P(C)(C)=O)n2)c(OC)cc1N1CCC(N2Cc3cc(Oc4cccc5c4CN(C4CCC(=O)NC4=O)C5=O)ccc3C2=O)CC1 (stereo not shown) [Example E211]	7.23	< 5.40	–	5.48	–
CCc1cc(Nc2ncc(Cl)c(Nc3ccccc3N(C)S(C)(=O)=O)n2)c(OC)cc1N1CCC(N2CCN(CCC#Cc3cccc4c3CN(C3CCC(=O)NC3=O)C4=O)CC2)CC1 (stereo not shown) [Example E42]	7.36	5.94	8.25	7.04	–
CCc1cc(Nc2ncc(Cl)c(Nc3ccccc3P(C)(C)=O)n2)c(OC)cc1N1CCC(N2CCN(C3(C#Cc4cccc5c4CN(C4CCC(=O)NC4=O)C5=O)CC3)CC2)CC1 (stereo not shown) [Example E84]	7.07	5.71	7.60	< 5.40	–
CCc1cc(Nc2ncc(Cl)c(Nc3ccccc3P(C)(C)=O)n2)c(OC)cc1N1CCC(N2CCN([C@H]3C[C@@H](Oc4cccc5c4CN(C4CCC(=O)NC4=O)C5=O)C3)CC2)CC1 (stereo partly shown) [Example E159]	7.66	5.73	8.85	6.19	–
CCc1cc(Nc2ncc(-c3cnn(C)c3)c(Nc3ccccc3P(C)(C)=O)n2)c(OC)cc1N1CCC(N2CCN(CCOc3cc(F)cc4c3CN(C3CCC(=O)NC3=O)C4=O)CC2)CC1 (stereo not shown) [Example E194]	< 5.40	5.87	9.30	6.27	–
CCc1cc(Nc2ncc(-c3ccn(C)n3)c(Nc3ccccc3P(C)(C)=O)n2)c(OC)cc1N1CCC(N2CCN(CCOc3cccc4c3CN(C3CCC(=O)NC3=O)C4=O)CC2)CC1 (stereo not shown) [Example E147]	5.70	< 5.40	7.25	5.80	–
CCc1cc(Nc2ncc(-c3cnn(C)c3)c(Nc3ccccc3P(C)(C)=O)n2)c(OC)cc1N1CCC(N2CCN(CCN(C)c3ccc4c(c3)CN(C3CCC(=O)NC3=O)C4=O)CC2)CC1 (stereo not shown) [Example E224]	< 5.40	–	9.05	6.18	> 4000 nM
CCc1cc(Nc2nc(Nc3ccccc3P(C)(C)=O)c3cc[nH]c3n2)c(C(F)(F)F)cc1N1CCC(N2CCN(CCCCOc3cccc4c3CN(C3CCC(=O)NC3=O)C4=O)CC2)CC1 (stereo not shown) [Example E154]	5.46	< 5.40	6.35	< 5.40	–
